In patent US10918713B2, “Epitopes from allergen proteins and methods and uses for immune response modulation” (LA JOLLA INSTITUTE FOR ALLERGY AND IMMUNOLOGY, priority 2012, dated 2021):
Values joined by “and” are separate entries in the source; they are usually repeats but may differ in a detail not shown here. Equal entries are not always repeated.

What was measured:
[1] = system: PBMC from allergic donors; test: IL-5 ELISPOT with extract-stimulated short-term lines; assay type: cell-based, human; settings: positive donor/peptide response
Protocol: (§1) Spots were counted by computer-assisted image analysis (Zeiss, KS-ELISPOT reader, Munich, Germany).
(§2) Each assay was performed in triplicate. The level of statistical significance was determined with a Student's t-test using the mean of triplicate values of the response against relevant pools or individual peptides versus the response against the DMSO control.

[2] = system: PBMC from allergic donors; test: Dual ELISPOT, total IL-5 and IFN-γ response (SFC); assay type: cell-based, human; settings: sum of IFNg and IL-5
Protocol: as §1, §2

Molecule | Response (SFC/10^6) IL-5 ([1]; one donor per table line) | Response (SFC/10^6) Total ([2]; one donor per table line) | Response (SFC/10^6) IL-5 ([1]; each table line is one donor) [SFC/10^6] | Response (SFC/10^6) Total ([2]; each table line is one donor) [SFC/10^6]
3324.0969 (TLANPILPASPNATI) | 167 SFC/10^6 | 167 SFC/10^6 |  | 
3324.1562 (DKFTVFEAAFNNAIK) |  |  | 183 | 183
3324.1630 (TKLDDEIKSWLAFAA) |  |  | 87 | 87
3324.1036 (TLPTILQIASVTKMS) | 120 SFC/10^6 | 120 SFC/10^6 |  | 
3324.0997 (GELALFYLQEQINHF) | 1113 SFC/10^6 | 1113 SFC/10^6 |  | 
3324.0966 (EYWILTAAHCVAGQT) | 203 SFC/10^6 | 203 SFC/10^6 |  | 
3324.0619 (GPCLFMRKVSHVILH) | 687 SFC/10^6 | 687 SFC/10^6 |  | 
3324.0960 (SELRRVDIAVVSRKE) | 120 SFC/10^6 | 120 SFC/10^6 |  | 
3324.1550 (GVTVKKTNQALIFGI) | 93 SFC/10^6 | 93 SFC/10^6 |  | 
3324.1129 (ELADILRSLGSDVGE) | 380 SFC/10^6 | 380 SFC/10^6 |  | 
3324.1558 (NYLALLVKYVTGDGD) |  |  | 80 | 80
3324.0605 (HFFNHHKVMLLGHDD) | 992 SFC/10^6 | 992 SFC/10^6 |  | 
3324.1593 (FEAARVVFSYCNLSD) |  |  | 363 | 363
3324.0968 (IRYNSLKHSLGGEKI) | 137 SFC/10^6 | 137 SFC/10^6 |  | 
3324.0972 (LKAATAFMLAWNYGV) | 757 SFC/10^6 | 757 SFC/10^6 |  | 
3324.1608 (IAIALLFLRDAKPEP) |  |  | 97 | 97
3324.0988 (RIYVDIVLNHMTGAQ) | 117 SFC/10^6 | 117 SFC/10^6 |  | 
3324.1170 (FLAVALVAGPAASYA) |  |  | 63 | 63
CC[C@H](C)[C@H](NC(=O)[C@H](C)NC(=O)[C@@H](NC(=O)[C@H](Cc1ccccc1)NC(=O)[C@H](C)NC(=O)[C@H](CCCNC(=N)N)NC(=O)[C@H](CC(N)=O)NC(=O)CNC(=O)[C@H](CCCNC(=N)N)NC(=O)[C@@H](N)CO)[C@@H](C)CC)C(=O)N[C@@H](CC(N)=O)C(=O)N[C@@H](CC(C)C)C(=O)N[C@@H](CCC(N)=O)C(=O)N[C@@H](CCCCN)C(=O)N[C@@H](CC(N)=O)C(=O)O [3324.0974] | 940 SFC/10^6 | 940 SFC/10^6 |  | 
3324.1043 (SNVANLRNWIISNTV) | 177 SFC/10^6 | 177 SFC/10^6 |  | 
3324.0973 (FEGRLLKAATAFMLA) | 113 SFC/10^6 and 953 SFC/10^6 | 113 SFC/10^6 and 953 SFC/10^6 |  | 
3324.1191 (DKFTVFESAFNKALN) |  |  | 97 | 97

Molecule | Response (SFC/10^6) IL-5 ([1]; one donor per table line) | Response (SFC/10^6) Total ([2]; one donor per table line) | Response (SFC/10^6) IL-5 ([1]; each table line is one donor) [SFC/10^6] | Response (SFC/10^6) Total ([2]; each table line is one donor) [SFC/10^6]
3324.1178 (EVKYTVSETALKKAV) |  |  | 333 | 333
3324.0525 (DKSMKVTVAFNQFGP) | 323 SFC/10^6 | 323 SFC/10^6 |  | 
3324.0354 (GIKYMVIQGEAGAVI) | 350 SFC/10^6 | 350 SFC/10^6 |  | 
3324.0992 (DALVMIDSHDLRVGH) | 290 SFC/10^6 | 290 SFC/10^6 |  | 
CC[C@H](C)[C@H](NC(=O)[C@H](CC(N)=O)NC(=O)[C@H](CCSC)NC(=O)[C@@H](N)CC(N)=O)C(=O)N[C@@H](CCCCN)C(=O)N[C@@H](CC(C)C)C(=O)N[C@@H](CCCCN)C(=O)N[C@@H](CCSC)C(=O)N1CCC[C@H]1C(=O)N[C@@H](CC(C)C)C(=O)N[C@@H](Cc1ccc(O)cc1)C(=O)N[C@H](C(=O)N[C@@H](C)C(=O)NCC(=O)N[C@@H](Cc1c[nH]cn1)C(=O)O)C(C)C [3324.0624] | 3147 SFC/10^6 | 3147 SFC/10^6 |  | 
3324.1040 (TIYSNVANLRNWIIS) | 297 SFC/10^6 | 297 SFC/10^6 |  | 
CC[C@H](C)[C@H](N)C(=O)N[C@@H](CCCCN)C(=O)N[C@@H](CO)C(=O)N[C@@H](CC(=O)O)C(=O)N[C@@H](CCCCN)C(=O)N1CCC[C@H]1C(=O)N[C@@H](CC(C)C)C(=O)N[C@@H](CCCCN)C(=O)NCC(=O)N1CCC[C@H]1C(=O)N[C@@H](Cc1ccccc1)C(=O)N[C@@H](CC(N)=O)C(=O)N[C@@H](Cc1ccccc1)C(=O)N[C@@H](CCCNC(=N)N)C(=O)N[C@@H](Cc1ccccc1)C(=O)O [3324.1140] |  |  | 317 | 317
3324.1196 (AALTKAITAMTQAQK) |  |  | 998 | 998
3324.1606 (KIAAEIAIALLFLRD) |  |  | 90 | 90
3324.1001 (RKDLDIFEQYNLEMA) | 117 SFC/10^6 | 117 SFC/10^6 |  | 
CC[C@H](C)[C@H](NC(=O)[C@H](C)NC(=O)[C@@H](NC(=O)[C@H](Cc1ccccc1)NC(=O)[C@H](C)NC(=O)[C@H](CCCNC(=N)N)NC(=O)[C@H](CC(N)=O)NC(=O)CNC(=O)[C@H](CCCNC(=N)N)NC(=O)[C@H](CO)NC(=O)[C@H](Cc1ccccc1)NC(=O)[C@H](C)NC(=O)[C@@H](NC(=O)[C@H](CCC(N)=O)NC(=O)[C@@H](N)Cc1ccc(O)cc1)[C@@H](C)CC)[C@@H](C)CC)C(=O)O [3324.0980] | 177 SFC/10^6 and 380 SFC/10^6 | 177 SFC/10^6 and 380 SFC/10^6 |  | 
CSCC[C@H](NC(=O)[C@H](Cc1ccccc1)NC(=O)[C@H](C)N)C(=O)N[C@@H](CC(C)C)C(=O)N[C@@H](C)C(=O)N[C@@H](Cc1c[nH]c2ccccc12)C(=O)N[C@@H](CC(N)=O)C(=O)N[C@@H](Cc1ccc(O)cc1)C(=O)NCC(=O)N[C@H](C(=O)N1CCC[C@H]1C(=O)N[C@@H](CCCNC(=N)N)C(=O)N[C@H](C(=O)N[C@@H](CCSC)C(=O)N[C@@H](CO)C(=O)O)C(C)C)C(C)C [3324.0977] | 1413 SFC/10^6 and 157 SFC/10^6 | 1413 SFC/10^6 and 157 SFC/10^6 |  | 
3324.0522 (IIFSKNLNIKLNMPL) | 863 SFC/10^6 | 863 SFC/10^6 |  | 
3324.0364 (LSRALNLLGLETDLS) | 167 SFC/10^6 | 167 SFC/10^6 |  | 
3324.1596 (AAEFGTVDSATLIVE) |  |  | 3003 | 3003
3324.1609 (SFGIILLQLLTARPP) |  |  | 103 | 103
3324.0350 (DHTNFKYSYSVIEGG) | 413 SFC/10^6 | 413 SFC/10^6 |  | 
CC[C@H](C)[C@H](NC(=O)[C@H](CO)NC(=O)[C@H](CC(C)C)NC(=O)[C@H](C)NC(=O)[C@H](CC(C)C)NC(=O)[C@@H](N)CC(N)=O)C(=O)N[C@@H](CCCCN)C(=O)N[C@@H](Cc1ccc(O)cc1)C(=O)N[C@@H](CC(N)=O)C(=O)N[C@@H](CCCCN)C(=O)N[C@@H](CCC(=O)O)C(=O)NCC(=O)N[C@@H](CC(=O)O)C(=O)N[C@@H](CO)C(=O)N[C@@H](CCSC)C(=O)O [3324.0658] | 917 SFC/10^6 and 853 SFC/10^6 | 917 SFC/10^6 and 853 SFC/10^6 |  | 
3324.0839 (ARKNFLESVKYVQSN) | 487 SFC/10^6 | 487 SFC/10^6 |  | 
CC[C@H](C)[C@H](NC(=O)[C@H](CO)NC(=O)[C@H](CC(C)C)NC(=O)[C@H](C)NC(=O)[C@H](CC(C)C)NC(=O)[C@H](CC(N)=O)NC(=O)[C@H](CCCCN)NC(=O)[C@H](CCC(=O)O)NC(=O)[C@H](CC(=O)O)NC(=O)[C@H](CO)NC(=O)CN)C(=O)N[C@@H](CCCCN)C(=O)N[C@@H](Cc1ccc(O)cc1)C(=O)N[C@@H](CC(N)=O)C(=O)N[C@@H](CCCCN)C(=O)O [3324.0657] | 1000 SFC/10^6 and 693 SFC/10^6 | 1000 SFC/10^6 and 693 SFC/10^6 |  | 
3324.1130 (LISVEEFQTMMTSEM) | 153 SFC/10^6 | 153 SFC/10^6 |  | 
3324.1105 (LSEFITGASVRLQCR) | 73 SFC/10^6 | 73 SFC/10^6 |  | 
